Results as given in patent US4595700A, “Thiol based collagenase inhibitors” (G. D. Searle & Co., priority 1985, dated 1986).
“And” between values parts separate entries of the source, which are not always exact repeats. Equal entries are not always repeated. Where two headings read alike, the source gives them in different places.

Target: T1, Human Rheumatoid Synovial collagenase (Homo sapiens, UniProt P03956)
T1 construct: from tissue; host or cells: rheumatoid synovium (tissue or synovial cell culture not distinguished)
T1 sequence (P03956 100-469): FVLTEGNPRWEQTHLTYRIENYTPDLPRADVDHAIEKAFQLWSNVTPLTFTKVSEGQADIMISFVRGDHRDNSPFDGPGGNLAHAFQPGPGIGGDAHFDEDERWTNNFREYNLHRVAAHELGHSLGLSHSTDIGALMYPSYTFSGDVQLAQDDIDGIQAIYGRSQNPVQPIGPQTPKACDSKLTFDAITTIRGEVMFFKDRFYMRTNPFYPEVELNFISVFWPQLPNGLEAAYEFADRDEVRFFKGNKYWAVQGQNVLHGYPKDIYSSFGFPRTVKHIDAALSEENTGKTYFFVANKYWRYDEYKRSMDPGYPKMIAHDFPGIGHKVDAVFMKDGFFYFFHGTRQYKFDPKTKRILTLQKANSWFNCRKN
Experiment: inhibition of collagenase (acetyl 14C collagen digestion, Cawston and Barrett)
Type: biochemical
Description: This was determined following the procedure of Cawston and Barrett, Anal. Biochem., 99, 340-345 (1979) whereby the 1 mM of the inhibitor being tested or dilutions thereof are incubated at 37° C. for 16 hours with native collagen and collagenase (buffered with Tris HCl--CaCl2; pH 7.6). The collagen is acetyl ^14 C collagen. The samples are centrifuged to sediment undigested collagen and an aliquot of the radiactive supernatant removed for assay on a scintillation counter as a measure of hydrolysis. The collagenase activity in the presence of 1 mM inhibitor, or a dilution thereof, is compared to activity in a control devoid of inhibitor and the results reported as that inhibitor concentration effecting 50% inhibition of the collagenase.

[1] = Table 2, 37° C., 16 hours, native acetyl 14C collagen, pH 7.6, read-out: IC50 (μM) Human Rheumatoid Synovial collagenase
[2] = Table 3, all compounds S stereochemistry at c, 37° C., 16 hours, pH 7.6, read-out: IC50 against human rheumatoid sinovial collagenase

Row | IC50 [1] | IC50 [2] | IC50 (Table 3 footnote 4, individual determinations, read-out: IC50, individual results (footnote 4: mean of two results)) | Structure (SMILES)
1 | 5 µM | – | – | CNC(=O)[C@H](Cc1ccc(OC)cc1)NC(=O)C(CC(C)C)C(S)C(C)C (single isomer, unassigned) [Example 3 Isomer B, N-(2-(1-Mercapto-2-methylpropyl)-4-methylpentanoyl)-O-methyl-L-tyrosine N-Methyl amide]
2 | 3.9 µM | – | – | CNC(=O)[C@H](Cc1ccc(OC)cc1)NC(=O)C(CC(C)C)C(S)c1ccccc1 (single isomer, unassigned) [Example 2 Isomer B1, N-[2-(1-S-Mercaptobenzyl)-4-methylpentanoyl]-O-methyl-L-tyrosine-N-methylamide]
3 | 1 µM | – | – | CCCCC(C(=O)N[C@@H](Cc1ccc(OC)cc1)C(=O)NC)C(C)S (single isomer, unassigned) [Example 5 Isomer B, N-[2-(1-Mercaptoethyl)hexanoyl]-O-methyl-L-tyrosine N-methyl amide]
4 | 4.9 µM | – | – | CCCCNC(=O)[C@H](C)NC(=O)C(CC(C)C)C(C)S (single isomer, unassigned) [Example 7 Isomer A, N-[2-(1-S-Mercaptoethyl)-4-methyl-pentanoyl]-L-alanine N-butylamide]
5 | 0.2 µM | – | – | CCCCC(C(=O)N[C@@H](Cc1ccc(OC)cc1)C(=O)NC)C(C)S (single isomer, unassigned) [Example 5 Isomer A, N-[2-(1-Mercaptoethyl)hexanoyl]-O-methyl-L-tyrosine N-methyl amide]
6 | 1.5 µM | – | – | CNC(=O)[C@H](Cc1ccc(OC)cc1)NC(=O)C(CC(C)C)C(C)S (single isomer, unassigned) [Example 1 Isomer B2, N-[2-(1-Mercaptoethyl)-4-methylpentanoyl]-O-methyl-L-tyrosine N-Methylamide]
7 | 5 µM | – | – | CCCCCCC(C(=O)N[C@@H](Cc1ccc(OC)cc1)C(=O)NC)C(C)S (single isomer, unassigned) [Example 4 Isomer A, N-[2-(1-mercaptoethyl)octanoyl]-O-methyl-L-tyrosine N-methylamide]
8 | 12 µM | – | – | CNC(=O)[C@H](Cc1ccc(OC)cc1)NC(=O)C(CC(C)C)C(S)c1ccccc1 (single isomer, unassigned) [Example 2 Isomer B2, N-[2-(1-S-Mercaptobenzyl)-4-methylpentanoyl]-O-methyl-L-tyrosine-N-methylamide]
9 | 1.2 µM | 1.2 µM | – | CCCCNC(=O)[C@H](C)NC(=O)C(CC(C)C)C(C)S (single isomer, unassigned) [Example 7 Isomer C, N-[2-(1-S-Mercaptoethyl)-4-methyl-pentanoyl]-L-alanine N-butylamide]
10 | 140 µM | – | – | CCCCCCC(C(=O)N[C@@H](Cc1ccc(OC)cc1)C(=O)NC)C(C)S (single isomer, unassigned) [Example 4 Isomer B, N-[2-(1-mercaptoethyl)octanoyl]-O-methyl-L-tyrosine N-methylamide]
11 | – | 37 µM | 25 µM and 44 µM | CCCCNC(=O)[C@H](C)NC(=O)C(CS)CC(C)C (some centres unmarked) [reference compound]
12 | 13 µM | – | – | CNC(=O)[C@H](Cc1ccc(OC)cc1)NC(=O)C(CC(C)C)C(C)S (single isomer, unassigned) [Example 1 Isomer A2, N-[2-(1-Mercaptoethyl)-4-methylpentanoyl]-O-methyl-L-tyrosine N-Methylamide]
13 | 2 µM | – | – | CNC(=O)[C@H](Cc1ccc(OC)cc1)NC(=O)C(CC(C)C)C(S)C(C)C (single isomer, unassigned) [Example 3 Isomer A, N-(2-(1-Mercapto-2-methylpropyl)-4-methylpentanoyl)-O-methyl-L-tyrosine N-Methyl amide]
14 | 19 µM | – | – | CNC(=O)[C@H](Cc1ccc(OC)cc1)NC(=O)C(CC(C)C)C(C)S (single isomer, unassigned) [Example 1 Isomer A1, N-[2-(1-Mercaptoethyl)-4-methylpentanoyl]-O-methyl-L-tyrosine N-Methylamide]
15 | 4.9 µM | – | – | CNC(=O)[C@@H](NC(=O)C(CC(C)C)C(C)S)[C@@H](C)OCc1ccccc1 (single isomer, unassigned) [Example 6 Isomer B, N-[2-(1-Mercaptoethyl)-4-methylpentanoyl]-O-benzyl-L-threonine N-Methylamide]
16 | 0.22 µM | 0.22 µM | – | CNC(=O)[C@H](Cc1ccc(OC)cc1)NC(=O)C(CC(C)C)C(C)S (single isomer, unassigned) [Example 1 Isomer B1, N-[2-(1-Mercaptoethyl)-4-methylpentanoyl]-O-methyl-L-tyrosine N-Methylamide]
17 | 0.27 µM | – | – | CNC(=O)[C@H](Cc1ccc(OC)cc1)NC(=O)C(CC(C)C)C(S)c1ccccc1 (single isomer, unassigned) [Example 2 Isomer A1, N-[2-(1-S-Mercaptobenzyl)-4-methylpentanoyl]-O-methyl-L-tyrosine-N-methylamide]
18 | 2 µM | – | – | CCCCNC(=O)[C@H](C)NC(=O)C(CC(C)C)C(C)S (single isomer, unassigned) [Example 7 Isomer B, N-[2-(1-S-Mercaptoethyl)-4-methyl-pentanoyl]-L-alanine N-butylamide]
19 | – | 3.6 µM | – | CNC(=O)[C@H](Cc1ccc(OC)cc1)NC(=O)C(CS)CC(C)C (some centres unmarked) [reference compound]
20 | – | 4.8 µM | – | CNC(=O)[C@@H](NC(=O)C(CS)CC(C)C)C(C)OCc1ccccc1 (some centres unmarked) [reference compound]
21 | 1.71 µM | – | – | CNC(=O)[C@H](Cc1ccc(OC)cc1)NC(=O)C(CC(C)C)C(S)c1ccccc1 (single isomer, unassigned) [Example 2 Isomer A2, N-[2-(1-S-Mercaptobenzyl)-4-methylpentanoyl]-O-methyl-L-tyrosine-N-methylamide]
22 | 0.45 µM | 0.45 µM | – | CNC(=O)[C@@H](NC(=O)C(CC(C)C)C(C)S)[C@@H](C)OCc1ccccc1 (single isomer, unassigned) [Example 6 Isomer A, N-[2-(1-Mercaptoethyl)-4-methylpentanoyl]-O-benzyl-L-threonine N-Methylamide]
